Measured values as given in the supplement of paper PMC10307832.

Legend:
Assay in all cases: relative viability (nuclei count vs DMSO), 5 days (fraction); higher = more cells survive
LU99A = system: LU99A
Summary of the method: (§1)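 After 5 days of treatment, lung cancer cells in 1536-well plates were fixed and stained in a single step (final 0.05% Triton X-100, 1% formaldehyde, 1 ug/ml Hoechst) and their nuclei counted on 4× images. Treatment had been applied by pin tool the day after seeding as one drug alone or as a fixed anchor-drug dose with five library-drug doses (not always all listed) in √10 steps. Relative viability is the nuclei count of treated wells divided by that of vehicle wells, and values are medians of duplicate plates.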

NCI-H650 = system: NCI-H650
Summary of the method: as §1

LCLC-97TM1 = system: LCLC-97TM1
Summary of the method: as §1

HCC-15 = system: HCC-15
Summary of the method: as §1

NCI-H2009 = system: NCI-H2009
Summary of the method: as §1

NCI-H2126 = system: NCI-H2126
Summary of the method: as §1

NCI-H2228 = system: NCI-H2228
Summary of the method: as §1

BEN = system: BEN
Summary of the method: as §1

NCI-H460 = system: NCI-H460
Summary of the method: as §1

NCI-H322M = system: NCI-H322M
Summary of the method: as §1

EPLC-272H = system: EPLC-272H
Summary of the method: as §1

NCI-H647 = system: NCI-H647
Summary of the method: as §1

HCC-78 = system: HCC-78
Summary of the method: as §1

NCI-H23 = system: NCI-H23
Summary of the method: as §1

201T = system: 201T
Summary of the method: as §1

NCI-H838 = system: NCI-H838
Summary of the method: as §1

PC-14 = system: PC-14
Summary of the method: as §1

NCI-H2085 = system: NCI-H2085
Summary of the method: as §1

NCI-H1355 = system: NCI-H1355
Summary of the method: as §1

NCI-H661 = system: NCI-H661
Summary of the method: as §1

NCI-H2405 = system: NCI-H2405
Summary of the method: as §1

Nc1cccc2c1CN(C1CCC(=O)NC1=O)C2=O (stereo unspecified) [Lenalidomide] + CC(C)C[C@H](NC(=O)[C@H](Cc1ccccc1)NC(=O)c1cnccn1)B(O)O [Bortezomib] (partner 0.002 µM)
relative viability (LU99A; first compound 0.253 µM): 1.06
relative viability (LU99A; first compound 0.8 µM): 1.11
relative viability (LU99A; first compound 2.53 µM): 1.05
relative viability (LU99A; first compound 8 µM): 0.73
relative viability (NCI-H650; first compound 0.253 µM): 0.854
relative viability (NCI-H650; first compound 2.53 µM): 0.893
relative viability (NCI-H650; first compound 8 µM): 0.577
relative viability (LCLC-97TM1; first compound 0.253 µM): 0.673
relative viability (LCLC-97TM1; first compound 0.8 µM): 0.514
relative viability (LCLC-97TM1; first compound 2.53 µM): 0.705
relative viability (LCLC-97TM1; first compound 8 µM): 0.416
relative viability (HCC-15; first compound 0.253 µM): 1.02
relative viability (HCC-15; first compound 2.53 µM): 1.34
relative viability (HCC-15; first compound 8 µM): 0.959
relative viability (NCI-H2009; first compound 0.253 µM): 0.929
relative viability (NCI-H2009; first compound 0.8 µM): 1.02
relative viability (NCI-H2009; first compound 2.53 µM): 1.22
relative viability (NCI-H2009; first compound 8 µM): 1.01
relative viability (NCI-H2126; first compound 0.253 µM): 1.17
relative viability (NCI-H2126; first compound 0.8 µM): 0.971
relative viability (NCI-H2126; first compound 2.53 µM): 1.12
relative viability (NCI-H2126; first compound 8 µM): 1.1
relative viability (NCI-H2228; first compound 0.253 µM): 1
relative viability (NCI-H2228; first compound 0.8 µM): 0.986
relative viability (NCI-H2228; first compound 2.53 µM): 1.12
relative viability (NCI-H2228; first compound 8 µM): 0.942
relative viability (BEN; first compound 0.253 µM): 1.04
relative viability (BEN; first compound 0.8 µM): 0.505
relative viability (BEN; first compound 2.53 µM): 1.02
relative viability (BEN; first compound 8 µM): 0.524
relative viability (NCI-H460; first compound 0.253 µM): 1.16
relative viability (NCI-H460; first compound 0.8 µM): 1.1
relative viability (NCI-H460; first compound 2.53 µM): 1.7
relative viability (NCI-H460; first compound 8 µM): 1.07
relative viability (NCI-H322M; first compound 0.253 µM): 1.18
relative viability (NCI-H322M; first compound 0.8 µM): 1.21
relative viability (NCI-H322M; first compound 2.53 µM): 1.31
relative viability (NCI-H322M; first compound 8 µM): 1.17
relative viability (EPLC-272H; first compound 0.253 µM): 0.876
relative viability (EPLC-272H; first compound 2.53 µM): 1.03
relative viability (EPLC-272H; first compound 8 µM): 0.999
relative viability (NCI-H647; first compound 0.253 µM): 0.88
relative viability (NCI-H647; first compound 0.8 µM): 0.9
relative viability (NCI-H647; first compound 2.53 µM): 1.16
relative viability (NCI-H647; first compound 8 µM): 0.772
relative viability (HCC-78; first compound 0.253 µM): 0.469
relative viability (HCC-78; first compound 0.8 µM): 0.368
relative viability (HCC-78; first compound 2.53 µM): 0.461
relative viability (HCC-78; first compound 8 µM): 0.392
relative viability (NCI-H23; first compound 0.253 µM): 1.12
relative viability (NCI-H23; first compound 0.8 µM): 1.03
relative viability (NCI-H23; first compound 2.53 µM): 1.3
relative viability (NCI-H23; first compound 8 µM): 0.9
relative viability (201T; first compound 0.253 µM): 1.07
relative viability (201T; first compound 0.8 µM): 0.553
relative viability (201T; first compound 2.53 µM): 1.09
relative viability (201T; first compound 8 µM): 1.11
relative viability (NCI-H838; first compound 0.253 µM): 0.801
relative viability (NCI-H838; first compound 0.8 µM): 0.887
relative viability (NCI-H838; first compound 2.53 µM): 1.5
relative viability (NCI-H838; first compound 8 µM): 0.446
relative viability (PC-14; first compound 0.253 µM): 0.779
relative viability (PC-14; first compound 0.8 µM): 0.802
relative viability (PC-14; first compound 2.53 µM): 0.905
relative viability (PC-14; first compound 8 µM): 0.854
relative viability (NCI-H2085; first compound 0.253 µM): 1.05
relative viability (NCI-H2085; first compound 0.8 µM): 0.818
relative viability (NCI-H2085; first compound 2.53 µM): 1.11
relative viability (NCI-H2085; first compound 8 µM): 0.881
relative viability (NCI-H1355; first compound 0.253 µM): 1.23
relative viability (NCI-H1355; first compound 0.8 µM): 0.426
relative viability (NCI-H1355; first compound 2.53 µM): 1.29
relative viability (NCI-H1355; first compound 8 µM): 1.03
relative viability (NCI-H661; first compound 0.253 µM): 0.7
relative viability (NCI-H661; first compound 0.8 µM): 0.75
relative viability (NCI-H661; first compound 2.53 µM): 0.794
relative viability (NCI-H661; first compound 8 µM): 0.755
relative viability (NCI-H2405; first compound 0.253 µM): 0.912
relative viability (NCI-H2405; first compound 0.8 µM): 0.418
relative viability (NCI-H2405; first compound 2.53 µM): 0.876
relative viability (NCI-H2405; first compound 8 µM): 0.828
